Assay results from ChEMBL document CHEMBL3994677, “Discovery of GSK2193874: An Orally Active, Potent, and Selective Blocker of Transient Receptor Potential Vanilloid 4” (ACS Med Chem Lett, 2017).
Active and inactive are the calls of the source. The calls are words filed in the database; no cut-off is given here.

Tests used:
[1] = Half life in po dosed rat; type: ADME, organism-based; conditions: in vivo
[2] = Clearance in iv dosed dog; type: ADME, organism-based, Canis lupus familiaris; conditions: in vivo
[3] = biological target: T1, Voltage-dependent L-type calcium channel subunit alpha-1C (Cavia porcellus, UniProt O35505); assay: Inhibition of Cav1.2 in guinea pig ventricular myocytes assessed as decrease in current amplitude at 2 Hz by patch clamp method; type: cell-based
[4] = biological target: Transient receptor potential cation channel subfamily V member 4 (Homo sapiens, UniProt Q9HBA0); assay: Antagonist activity at human TRPV4 expressed in HEK293 cells assessed as inhibition of GSK634775A-induced calcium influx preincubated for 10 mins followed by GSK634775A addition by […] dye based FLIPR assay; type: cell-based
[5] = biological target: Transient receptor potential cation channel subfamily V member 4 (Rattus norvegicus, UniProt Q9ERZ8); assay: Antagonist activity at rat TRPV4 expressed in HEK293 cells assessed as inhibition of GSK634775A-induced calcium influx preincubated for 10 mins followed by GSK634775A addition by […] dye based FLIPR assay; type: cell-based
[6] = Oral bioavailability in rat; type: ADME, organism-based; conditions: in vivo
[7] = Clearance in iv dosed rat; type: ADME, organism-based; conditions: in vivo
[8] = biological target: Short transient receptor potential channel 3 (Homo sapiens, UniProt Q13507); assay: Inhibition of TRPC3 (unknown origin)
[9] = Oral bioavailability in dog; type: ADME, organism-based, Canis lupus familiaris; conditions: in vivo
[10] = Half life in po dosed dog; type: ADME, organism-based, Canis lupus familiaris; conditions: in vivo
[11] = biological target: T1, Voltage-dependent L-type calcium channel subunit alpha-1C; assay: Inhibition of Cav1.2 in guinea pig ventricular myocytes assessed as decrease in current amplitude at 0.1 Hz by patch clamp method; type: cell-based
[12] = biological target: Transient receptor potential cation channel subfamily A member 1 (Homo sapiens, UniProt O75762); assay: Inhibition of TRPA1 (unknown origin)
[13] = biological target: Transient receptor potential cation channel subfamily V member 1 (Homo sapiens, UniProt Q8NER1); assay: Inhibition of TRPV1 (unknown origin)
[14] = biological target: Transient receptor potential cation channel subfamily M member 8 (Homo sapiens, UniProt Q7Z2W7); assay: Inhibition of TRPM8 (unknown origin)
[15] = biological target: Nuclear receptor subfamily 1 group I member 2 (Homo sapiens, UniProt O75469); assay: Activation of PXR (unknown origin); type: ADME; conditions: human
[16] = biological target: Short transient receptor potential channel 6 (Homo sapiens, UniProt Q9Y210); assay: Inhibition of TRPC6 (unknown origin)
Canis familiaris [17] = assay: Unbound plasma concentration in Beagle dog at 3 mg/kg, iv administered as infusion; conditions: in vivo
Aorta = assay: Toxicity in mouse isolated aorta assessed as effect on contractility; type: tissue-based; conditions: in vivo
Substance-K receptor = Substance-K receptor (Homo sapiens, UniProt P21452); assay: Inhibition of NK2 receptor (unknown origin) by FLIPR assay
Plasma = assay: Terminal plasma concentration in TRPV4 knockout Balb/c mouse at 30 mg/kg, iv administered as infusion; type: ADME, organism-based; conditions: in vivo, read-out: Cp(T)
Canis familiaris [18] = assay: Toxicity in Beagle dog assessed as reduction in BP at 3 mg/kg, iv administered as infusion; type: organism-based, Canis lupus familiaris; conditions: in vivo
Mus musculus [19] = assay: Toxicity in TRPV4 knockout Balb/c mouse assessed as reduction in heart rate at 30 mg/kg, iv administered as infusion; type: organism-based; conditions: in vivo
[20] = Toxicity in mouse isolated right atria assessed as effect on contractility; set-up: species or system Right cardiac atrium; conditions: in vivo
[21] = biological target: Sodium channel protein type 5 subunit alpha (Homo sapiens, UniProt Q14524); assay: Inhibition of Nav1.5 (unknown origin) by ionworks quattro electrophysiology assay
[22] = biological target: Voltage-dependent L-type calcium channel subunit alpha-1C (Homo sapiens, UniProt Q13936); assay: Inhibition of Cav1.2 (unknown origin) by patchXpress electrophysiology assay
[23] = Cmax in Beagle dog at 1 mg/kg, iv administered as infusion; type: ADME, organism-based, Canis lupus familiaris; set-up: dose 1 mg/kg, route intravenous; conditions: in vivo
Canis familiaris [24] = assay: Toxicity in Beagle dog assessed as hemodynamic effect at 1 mg/kg, iv administered as infusion; type: organism-based, Canis lupus familiaris; conditions: in vivo
Mus musculus [25] = assay: Toxicity in TRPV4 knockout Balb/c mouse assessed as reduction in BP at 30 mg/kg, iv administered as infusion; type: organism-based; conditions: in vivo
[26] = biological target: Voltage-dependent T-type calcium channel subunit alpha-1H (Homo sapiens) (UniProt O95180); assay: Inhibition of Cav3.2 (unknown origin)
[27] = Clearance in Sprague-Dawley rat; type: ADME; conditions: in vivo
[28] = biological target: Voltage-dependent N-type calcium channel subunit alpha-1B (Homo sapiens) (UniProt Q00975); assay: Inhibition of Cav2.2 (unknown origin)
Canis familiaris [29] = assay: Toxicity in Beagle dog assessed as effect on LV function at 3 mg/kg, iv administered as infusion; type: organism-based, Canis lupus familiaris; conditions: in vivo
Neuromedin-K receptor = Neuromedin-K receptor (Homo sapiens, UniProt P29371); assay: Inhibition of NK3 receptor (unknown origin) by FLIPR assay
Canis familiaris [30] = assay: Toxicity in Beagle dog assessed as QTc prolongation at 1 to 3 mg/kg, iv administered as infusion; type: organism-based, Canis lupus familiaris; conditions: in vivo
Canis familiaris [31] = assay: Toxicity in Beagle dog assessed as reduction in heart rate at 3 mg/kg, iv administered as infusion; type: organism-based, Canis lupus familiaris; conditions: in vivo
Rattus norvegicus = assay: Dose normalized AUC in po dosed Sprague-Dawley rat; type: ADME, organism-based; conditions: in vivo
[32] = Cardiotoxicity in rabbit ventricular wedge; type: toxicity, Oryctolagus cuniculus
[33] = Cmax in Beagle dog at 3 mg/kg, iv administered as infusion; type: ADME, organism-based, Canis lupus familiaris; set-up: dose 3 mg/kg, route intravenous; conditions: in vivo
[34] = biological target: Voltage-gated inwardly rectifying potassium channel KCNH2 (Homo sapiens, UniProt Q12809); assay: Inhibition of human ERG by patchXpress electrophysiology assay
Canis familiaris [35] = assay: Toxicity in Beagle dog assessed as effect on cardiac output at 3 mg/kg, iv administered as infusion; type: organism-based, Canis lupus familiaris; conditions: in vivo
[36] = Oral bioavailability in Sprague-Dawley rat; type: ADME, organism-based; conditions: in vivo
Canis familiaris [37] = assay: Unbound plasma concentration in Beagle dog at 1 mg/kg, iv administered as infusion; conditions: in vivo

Transient receptor potential cation channel subfamily V member 4 (Homo sapiens, UniProt Q9HBA0), sequence (Q9HBA0 whole entry): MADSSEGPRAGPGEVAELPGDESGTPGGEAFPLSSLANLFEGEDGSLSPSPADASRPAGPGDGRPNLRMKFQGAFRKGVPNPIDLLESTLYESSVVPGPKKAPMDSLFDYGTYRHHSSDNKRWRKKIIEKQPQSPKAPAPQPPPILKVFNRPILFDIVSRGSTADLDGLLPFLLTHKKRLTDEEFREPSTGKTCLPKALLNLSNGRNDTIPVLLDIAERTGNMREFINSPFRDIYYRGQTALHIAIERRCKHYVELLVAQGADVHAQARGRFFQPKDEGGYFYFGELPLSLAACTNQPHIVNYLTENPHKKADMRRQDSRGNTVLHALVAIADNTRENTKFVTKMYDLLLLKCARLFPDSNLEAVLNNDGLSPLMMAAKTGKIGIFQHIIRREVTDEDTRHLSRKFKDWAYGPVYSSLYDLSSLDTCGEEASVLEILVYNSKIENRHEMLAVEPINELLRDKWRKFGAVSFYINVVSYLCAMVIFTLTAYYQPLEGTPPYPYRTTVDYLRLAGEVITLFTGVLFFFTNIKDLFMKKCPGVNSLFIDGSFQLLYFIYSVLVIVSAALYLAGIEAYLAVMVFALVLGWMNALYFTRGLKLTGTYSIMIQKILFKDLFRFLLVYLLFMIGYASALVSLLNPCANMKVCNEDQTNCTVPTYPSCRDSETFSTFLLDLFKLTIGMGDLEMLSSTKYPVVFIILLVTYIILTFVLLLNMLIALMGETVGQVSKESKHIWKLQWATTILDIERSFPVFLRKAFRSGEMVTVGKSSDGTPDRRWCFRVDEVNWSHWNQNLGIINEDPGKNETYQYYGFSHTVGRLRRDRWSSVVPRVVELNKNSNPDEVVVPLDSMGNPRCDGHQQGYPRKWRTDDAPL
Transient receptor potential cation channel subfamily V member 4 (Rattus norvegicus, UniProt Q9ERZ8), sequence (Q9ERZ8 whole entry): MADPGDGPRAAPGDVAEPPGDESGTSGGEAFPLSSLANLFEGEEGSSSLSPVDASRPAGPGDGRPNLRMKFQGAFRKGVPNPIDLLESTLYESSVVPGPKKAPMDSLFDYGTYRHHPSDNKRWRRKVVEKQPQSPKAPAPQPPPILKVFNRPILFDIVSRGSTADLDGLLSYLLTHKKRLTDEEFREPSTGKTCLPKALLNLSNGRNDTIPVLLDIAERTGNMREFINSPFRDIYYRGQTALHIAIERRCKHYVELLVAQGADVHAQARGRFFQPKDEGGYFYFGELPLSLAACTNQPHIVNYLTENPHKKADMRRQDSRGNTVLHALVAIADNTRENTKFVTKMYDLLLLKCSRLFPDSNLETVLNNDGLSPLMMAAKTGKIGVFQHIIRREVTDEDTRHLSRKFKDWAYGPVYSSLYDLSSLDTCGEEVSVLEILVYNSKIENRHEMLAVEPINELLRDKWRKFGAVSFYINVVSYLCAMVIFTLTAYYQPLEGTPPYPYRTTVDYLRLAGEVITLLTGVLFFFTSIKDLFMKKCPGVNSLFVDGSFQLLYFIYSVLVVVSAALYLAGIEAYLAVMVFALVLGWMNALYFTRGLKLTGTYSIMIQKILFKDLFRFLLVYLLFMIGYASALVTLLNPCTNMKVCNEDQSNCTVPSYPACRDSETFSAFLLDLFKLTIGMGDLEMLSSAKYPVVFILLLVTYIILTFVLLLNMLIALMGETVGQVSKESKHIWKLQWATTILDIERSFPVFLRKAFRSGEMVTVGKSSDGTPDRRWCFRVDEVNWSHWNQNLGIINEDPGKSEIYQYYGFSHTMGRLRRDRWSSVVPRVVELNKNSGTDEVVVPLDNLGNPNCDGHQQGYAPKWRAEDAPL
T1 sequence (O35505 whole entry): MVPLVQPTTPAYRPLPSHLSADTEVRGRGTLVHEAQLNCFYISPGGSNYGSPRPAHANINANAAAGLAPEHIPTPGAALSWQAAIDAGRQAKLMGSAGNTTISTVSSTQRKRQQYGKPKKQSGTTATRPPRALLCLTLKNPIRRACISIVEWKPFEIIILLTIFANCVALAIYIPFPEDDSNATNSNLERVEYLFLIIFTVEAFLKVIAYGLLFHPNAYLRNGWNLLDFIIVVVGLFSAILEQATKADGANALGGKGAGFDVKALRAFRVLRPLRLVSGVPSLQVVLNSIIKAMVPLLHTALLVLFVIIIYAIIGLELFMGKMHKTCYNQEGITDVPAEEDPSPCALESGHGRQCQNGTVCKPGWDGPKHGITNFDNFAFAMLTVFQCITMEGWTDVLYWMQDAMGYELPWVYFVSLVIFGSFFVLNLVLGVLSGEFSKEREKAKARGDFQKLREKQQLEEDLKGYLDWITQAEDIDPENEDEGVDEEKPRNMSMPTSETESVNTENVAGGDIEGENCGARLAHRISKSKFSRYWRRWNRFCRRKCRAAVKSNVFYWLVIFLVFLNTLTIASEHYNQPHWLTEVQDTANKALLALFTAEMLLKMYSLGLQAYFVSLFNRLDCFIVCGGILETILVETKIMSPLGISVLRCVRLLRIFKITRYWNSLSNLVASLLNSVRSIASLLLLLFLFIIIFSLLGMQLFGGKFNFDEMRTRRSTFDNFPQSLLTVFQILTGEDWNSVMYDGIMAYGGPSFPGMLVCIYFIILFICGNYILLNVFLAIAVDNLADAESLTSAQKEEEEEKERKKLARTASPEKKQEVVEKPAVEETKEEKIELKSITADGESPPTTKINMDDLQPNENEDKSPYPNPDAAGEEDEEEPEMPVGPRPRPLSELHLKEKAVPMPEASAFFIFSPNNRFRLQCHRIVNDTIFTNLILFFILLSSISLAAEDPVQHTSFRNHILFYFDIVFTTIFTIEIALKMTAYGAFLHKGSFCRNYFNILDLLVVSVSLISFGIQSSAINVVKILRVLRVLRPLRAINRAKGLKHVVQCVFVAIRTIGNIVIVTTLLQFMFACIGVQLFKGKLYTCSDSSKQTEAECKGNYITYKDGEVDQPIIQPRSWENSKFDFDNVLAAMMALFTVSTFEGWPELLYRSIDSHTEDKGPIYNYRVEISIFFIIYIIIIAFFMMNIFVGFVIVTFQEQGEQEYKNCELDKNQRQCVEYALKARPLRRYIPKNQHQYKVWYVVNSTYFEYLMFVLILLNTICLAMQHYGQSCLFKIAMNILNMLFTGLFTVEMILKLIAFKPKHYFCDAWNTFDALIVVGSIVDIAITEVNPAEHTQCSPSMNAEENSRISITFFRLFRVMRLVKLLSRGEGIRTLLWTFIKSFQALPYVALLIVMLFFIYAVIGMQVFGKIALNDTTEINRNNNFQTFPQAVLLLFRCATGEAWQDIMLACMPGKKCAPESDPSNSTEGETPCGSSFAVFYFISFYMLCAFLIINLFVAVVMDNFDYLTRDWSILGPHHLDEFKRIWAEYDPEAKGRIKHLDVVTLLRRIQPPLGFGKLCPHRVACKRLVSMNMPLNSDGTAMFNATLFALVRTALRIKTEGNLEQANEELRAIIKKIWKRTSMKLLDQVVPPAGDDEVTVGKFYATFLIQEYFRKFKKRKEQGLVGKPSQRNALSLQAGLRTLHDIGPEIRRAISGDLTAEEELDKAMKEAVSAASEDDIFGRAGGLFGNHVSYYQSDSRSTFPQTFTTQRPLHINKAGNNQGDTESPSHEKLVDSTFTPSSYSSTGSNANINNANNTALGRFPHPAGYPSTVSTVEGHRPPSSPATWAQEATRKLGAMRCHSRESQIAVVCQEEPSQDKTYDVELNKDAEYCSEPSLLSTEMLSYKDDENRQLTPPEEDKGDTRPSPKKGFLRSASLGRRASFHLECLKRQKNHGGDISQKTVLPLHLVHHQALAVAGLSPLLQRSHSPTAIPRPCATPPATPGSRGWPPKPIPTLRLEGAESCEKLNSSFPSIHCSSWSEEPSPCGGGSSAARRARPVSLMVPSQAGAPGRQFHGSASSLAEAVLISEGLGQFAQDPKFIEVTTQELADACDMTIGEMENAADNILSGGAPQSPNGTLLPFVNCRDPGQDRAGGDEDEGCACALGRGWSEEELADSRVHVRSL
Substance-K receptor, sequence (P21452 whole entry, the tested form may be a part): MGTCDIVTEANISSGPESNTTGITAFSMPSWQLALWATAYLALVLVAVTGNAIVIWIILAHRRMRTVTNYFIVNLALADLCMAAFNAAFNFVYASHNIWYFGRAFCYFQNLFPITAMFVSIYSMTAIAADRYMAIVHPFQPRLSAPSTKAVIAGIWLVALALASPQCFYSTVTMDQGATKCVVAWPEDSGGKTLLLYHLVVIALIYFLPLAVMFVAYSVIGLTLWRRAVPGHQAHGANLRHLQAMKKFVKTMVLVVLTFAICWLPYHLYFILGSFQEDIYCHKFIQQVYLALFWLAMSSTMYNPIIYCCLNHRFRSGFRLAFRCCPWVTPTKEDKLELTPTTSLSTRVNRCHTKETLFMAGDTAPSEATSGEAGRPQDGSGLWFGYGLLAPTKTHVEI
Neuromedin-K receptor, sequence (P29371 whole entry, the tested form may be a part): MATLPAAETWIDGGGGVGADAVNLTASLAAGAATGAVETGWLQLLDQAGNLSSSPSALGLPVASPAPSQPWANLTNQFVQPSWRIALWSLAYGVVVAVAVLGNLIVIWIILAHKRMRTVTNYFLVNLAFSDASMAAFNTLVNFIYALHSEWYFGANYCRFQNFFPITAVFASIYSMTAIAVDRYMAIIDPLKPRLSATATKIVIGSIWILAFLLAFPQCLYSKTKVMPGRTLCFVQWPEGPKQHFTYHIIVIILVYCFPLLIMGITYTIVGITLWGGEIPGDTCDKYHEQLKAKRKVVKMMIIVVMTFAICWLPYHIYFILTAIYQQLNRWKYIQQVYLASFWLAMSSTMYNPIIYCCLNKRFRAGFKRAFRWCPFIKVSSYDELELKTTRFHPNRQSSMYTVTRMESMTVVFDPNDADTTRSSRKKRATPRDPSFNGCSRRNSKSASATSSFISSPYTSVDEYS

## O=C(NC1(c2ccccc2)CC1)c1c(CN2CCC(N3CCCCC3)CC2)c(-c2cccc(C(F)(F)F)c2)nc2cc(Br)ccc12
[1]
  half-life: 10 h
[2]
  clearance: 6.9 mL/min/kg
[3]
  IC30: 10500 nM
[4]
  IC50: 40 nM
[5]
  IC50: 2 nM
[6]
  bioavailability: 31%
[7]
  clearance: 7.3 mL/min/kg
[8]
  IC50: > 25000 nM
[9]
  bioavailability: 53%
[10]
  half-life: 31 h
[11]
  IC30: 10500 nM
[12]
  IC50: > 25000 nM
[13]
  IC50: > 25000 nM
[14]
  IC50: > 25000 nM
[15]
  Activity: Not Active
[16]
  IC50: > 25000 nM

## C[C@H](NC(=O)c1c(CN2CCC(N3CCCCC3)CC2)c(-c2cccc(C(F)(F)F)c2)nc2ccccc12)c1ccccc1
Canis familiaris [17]
  unbound plasma concentration: 0.94 µM
Aorta
  Activity: Non-Toxic
[3]
  IC30: 120 nM
Substance-K receptor
  IC50: 1300 nM
Plasma
  concentration: 10 to 11 µM
[4]
  IC50: 80 nM
Canis familiaris [18]
  Activity: Toxic
[5]
  IC50: 2.5 nM
Mus musculus [19]
  Activity: Toxic
[20]
  Activity: Non-Toxic
[21]
  IC50: 40000 nM
[22]
  IC50: 4500 nM
[23]
  Cmax: 7 µM
Canis familiaris [24]
  Activity: Non-Toxic
Mus musculus [25]
  Activity: Toxic
[26]
  inhibition: inactive
[27]
  clearance: 25 mL/min/kg
[28]
  inhibition: inactive
Canis familiaris [29]
  Activity: Toxic
Neuromedin-K receptor
  IC50: 2500 nM
Canis familiaris [30]
  Activity: Toxic
Canis familiaris [31]
  Activity: Toxic
Rattus norvegicus
  AUC/dose: 0.8 µg·h/mL/mg/kg
[32]
  Activity: Non-Toxic
[33]
  Cmax: 20 µM
[34]
  IC50: 1200 nM
Canis familiaris [35]
  Activity: Toxic
[11]
  IC30: 1700 nM
[36]
  bioavailability: 100%
Canis familiaris [37]
  unbound plasma concentration: 0.3 µM

## C[C@H](NC(=O)c1c(CN2CCC(N3CCCCC3)CC2)c(-c2ccc(C(F)(F)F)cc2)nc2ccccc12)c1ccccc1
[4]
  IC50: 400 nM
[5]
  IC50: 16 nM

## O=C(N[C@@H](c1ccccc1)C(F)(F)F)c1c(CN2CCC(N3CCCCC3)CC2)c(-c2cccc(C(F)(F)F)c2)nc2ccccc12
[4]
  IC50: 100 nM
[5]
  IC50: 8 nM

## COc1ccc2c(C(=O)N[C@H](c3ccccc3)C(F)(F)F)c(CN3CCC(N4CCCCC4)CC3)c(-c3cccc(C(F)(F)F)c3)nc2c1
[4]
  IC50: 50 nM
[5]
  IC50: 4 nM

## COc1ccc2c(C(=O)NC3(c4ccccc4)CC3)c(CN3CCC(N4CCCCC4)CC3)c(-c3cccc(C(F)(F)F)c3)nc2c1
[4]
  IC50: 250 nM
[5]
  IC50: 2.5 nM

## O=C(NCc1ccccc1)c1c(CN2CCC(N3CCCCC3)CC2)c(-c2cccc(C(F)(F)F)c2)nc2ccccc12
[4]
  IC50: 500 nM
[5]
  IC50: 50 nM

## COc1cccc(-c2nc3ccccc3c(C(=O)N[C@@H](C)c3ccccc3)c2CN2CCC(N3CCCCC3)CC2)c1
[4]
  IC50: 3980 nM
[5]
  IC50: 630 nM

## C[C@H](NC(=O)c1c(CN2CCC(N(C)C)CC2)c(-c2cccc(C(F)(F)F)c2)nc2ccccc12)c1ccccc1
[4]
  IC50: 2510 nM
[5]
  IC50: 320 nM

## O=C(NC1(c2ccccc2)CC1)c1c(CN2CCC(N3CCCCC3)CC2)c(-c2cccc(C(F)(F)F)c2)nc2ccccc12
[4]
  IC50: 50 nM
[5]
  IC50: 2.5 nM

## COc1ccc(-c2nc3ccccc3c(C(=O)N[C@@H](C)c3ccccc3)c2CN2CCC(N3CCCCC3)CC2)cc1
[4]
  IC50: 5010 nM
[5]
  IC50: 320 nM

## CC(C)[C@H](NC(=O)c1c(CN2CCC(N3CCCCC3)CC2)c(-c2cccc(C(F)(F)F)c2)nc2ccccc12)c1ccccc1
[4]
  IC50: 130 nM
[5]
  IC50: 25 nM

## C[C@H](NC(=O)c1c(CN2CCC(C3CCCCC3)CC2)c(-c2cccc(C(F)(F)F)c2)nc2ccccc12)c1ccccc1
[4]
  IC50: > 25000 nM
[5]
  IC50: > 25000 nM

## O=C(N[C@H](c1ccccc1)C(F)(F)F)c1c(CN2CCC(N3CCCCC3)CC2)c(-c2cccc(C(F)(F)F)c2)nc2ccc(Br)cc12
[4]
  IC50: 60 nM
[5]
  IC50: 2.5 nM

## Cc1cccc(-c2nc3ccccc3c(C(=O)N[C@@H](C)c3ccccc3)c2CN2CCC(N3CCCCC3)CC2)c1
[4]
  IC50: 500 nM
[5]
  IC50: 13 nM

## C[C@H](NC(=O)c1c(CN2CCC(N3CCCCC3)CC2)c(-c2cccc(Cl)c2)nc2ccccc12)c1ccccc1
[4]
  IC50: 200 nM
[5]
  IC50: 8 nM
